Test results: the NIST ThermoML archive (doi:10.1016/j.jct.2011.08.016)

Details: Liquid, Vibrating tube method

CCCCCCC [heptane]
mass density [kg/m3]
Details	313.18 K	333.04 K	353.06 K
1000 kPa	668.09	650.66	–
1010 kPa	–	–	632.6
2000 kPa	669.03	651.8	634.02
3000 kPa	669.97	652.94	635.41
4000 kPa	670.93	654.08	636.78
5000 kPa	–	655.23	638.15
5010 kPa	671.9	–	–
6000 kPa	672.87	656.38	639.47
7000 kPa	673.86	657.54	640.8
8000 kPa	674.87	658.65	642.1
9000 kPa	675.87	659.81	–
9010 kPa	–	–	643.4
10000 kPa	676.86	660.92	644.66
11000 kPa	677.85	662.03	645.92
12000 kPa	678.83	663.1	647.13
13000 kPa	679.81	664.2	648.37
14000 kPa	680.76	665.25	649.56
15000 kPa	681.7	666.31	650.72
16000 kPa	682.62	667.33	651.88
17000 kPa	683.53	668.33	653
18000 kPa	684.41	–	–
18030 kPa	–	669.34	654.12
19000 kPa	685.26	670.26	655.16
20000 kPa	686.11	671.2	656.22
21000 kPa	686.92	–	657.27
22000 kPa	687.67	673.01	658.25
23000 kPa	688.42	673.86	659.24
23910 kPa	689.07	–	–
24000 kPa	–	674.7	660.2
25000 kPa	689.85	675.52	661.14
